Reference: patent US20260035364A1, “BICYCLIC TETRAHYDROTHIAZEPINE DERIVATIVES” (Hoffmann-La Roche Inc., priority 2022, published 2026)
Like-named read-outs stand apart in the source and are kept apart here.

Tests used:
primary human T-cells = assay: IL2 secretion measurements in CD3-stimulated T-cells; format: cell-based; settings: CD3 condition; for Emax: read-out: Emax IL2 (% activation); for EC50: IL2 secretion after 24 hours, read-out: Tcell IL2 CD3 EC50
Method: As readouts for T-cell activation, IL2 secretion after 24 hours and proliferation after 5 days was measured. Increases in IL2 secretion and proliferation upon compound treatment were assessed as the % of the maximum of reference compound A1. WO 2016/139181 discloses reference compound A1 as example 70. As a counter screen and to make sure that no unwanted TCR-independent activation was triggered, PBS conditions were run for all compounds.
Expanded primary human T-cells were thawed and cultured in RPMI 1640 (Gibco, #61870-010)+5% human serum (HS, Sigma, #H3667)+1 mM Sodium Pyruvate (Gibco, #11360-039)+50 μM 2-mercaptoethanol (Gibco, #31350-010) and 1× Pen-Strep (Life Technologies, #15140122) medium at density of 2 Mio/ml for 3 hours in 5% CO2, 37° C. and 95% humidity. For coating of plates, […] or PBS++ with CD3 antibody (concentration depending on donor and determined by CD3 titrations) was added 100 μl/well to Poly-D Lysine coated 96-well plates. Plates were sealed and incubated at room temperature for 3 hours on a table-top rocking platform. After incubation, plates were washed once with PBS−− and filled with 40 μl/well culture medium only. Compounds were then added (see next section) to medium only plates. After 3 hours of culturing the T-cells, cells were filtered through a cell strainer (Miltenyi Biotech, #130-041-407), counted again and concentration was adjusted to 1.25 Mio/ml.
Cells were then seeded 80 μl/well to the 40 μl/well including dispensed compounds according to plate layout. By adding cells, compounds were further diluted 1:3, and resulting in 100k cells/120 µl/well. After 24 hours 40 μl of supernatant was collected carefully from the top while not disturbing the cells and transferred into a round bottom 96 well plate. Collected and frozen supernatant was used for detection of IL2 using the IL-2 Human ProQuantum Immunoassay Kit (Invitrogen) or using the Human IL-2 ELISA Kit (Thermo Fisher).
Compound Treatment Compounds were added in a 5 or 6 pt dose response with the Tecan D300e Digital Dispenser, all conditions 3 times more concentrated than the end-concentration, since cells are added afterwards (80p1 cells to 40p1 prepared medium with treatment). The DR was starting at 20 μM or 10 μM final top concentration and a dilution factor of 3.333. The positive control was the reference compound A1 that was added in a dose response as well, additionally to 3 wells of only 20 μM representing the positive stimulator control. All wells were normalized with DMSO to a final concentration of 0.6% (0.2% end-concentration).
The immunoassay is done following the manufacturer's manual (Invitrogen, #A35603).
Additional information: For the immunoassay, MicroAmp™ EnduraPlate™ Optical 384-Well plates are used. Frozen supernatant is thawed and centrifuged for 5 minutes at 1000×g, both steps at 4° C. After centrifugation, required sample amount is taken from the top, and in a separate LightCycler V-bottom plate (working plate) diluted with assay dilution buffer, dilution factor depending on the PBS or CD3 condition but at least 1:3. IL-2 standard and blanks are prepared in the same V-bottom plate, standard with a range of 0.0128-5000 pg/ml (extended version). After preparation, 5 μl of sample dilutions or standard/blanks are transferred to the optical 384-well plate (assay plate) and the 10 μl reaction protocol is being followed. For measurement, the QuantStudio 12K Flex system is used. Raw data is extracted and IL-2 concentrations are calculated with the Thermo Fisher online app (apps.thermofisher.com/apps/proquantum).
ELISA is done following the manufacturer's manual (Thermo Fisher Scientific, #88-7025-88). Additional information: For the ELISA Nunc MaxiSorp 96 well plates are used. Frozen supernatant is thawed and centrifuged for 5 minutes at 1000×g, both steps at 4° C. […]

DGKzeta = DGKzeta (Homo sapiens, UniProt Q13574); assay: In vitro DGK inhibition assay (ADP-Glo, liposomes), DGKzeta; format: biochemical; parameters: hDGKzeta(1-928)-N-His; His (N); made in house; host or cells: Sf21 insect cells (baculovirus); settings: 2 nM DGK ζ, 50 μM ATP, 125 uM DLG in liposomes, 1 hour reaction
Sequence of DGKzeta (Q13574 whole entry): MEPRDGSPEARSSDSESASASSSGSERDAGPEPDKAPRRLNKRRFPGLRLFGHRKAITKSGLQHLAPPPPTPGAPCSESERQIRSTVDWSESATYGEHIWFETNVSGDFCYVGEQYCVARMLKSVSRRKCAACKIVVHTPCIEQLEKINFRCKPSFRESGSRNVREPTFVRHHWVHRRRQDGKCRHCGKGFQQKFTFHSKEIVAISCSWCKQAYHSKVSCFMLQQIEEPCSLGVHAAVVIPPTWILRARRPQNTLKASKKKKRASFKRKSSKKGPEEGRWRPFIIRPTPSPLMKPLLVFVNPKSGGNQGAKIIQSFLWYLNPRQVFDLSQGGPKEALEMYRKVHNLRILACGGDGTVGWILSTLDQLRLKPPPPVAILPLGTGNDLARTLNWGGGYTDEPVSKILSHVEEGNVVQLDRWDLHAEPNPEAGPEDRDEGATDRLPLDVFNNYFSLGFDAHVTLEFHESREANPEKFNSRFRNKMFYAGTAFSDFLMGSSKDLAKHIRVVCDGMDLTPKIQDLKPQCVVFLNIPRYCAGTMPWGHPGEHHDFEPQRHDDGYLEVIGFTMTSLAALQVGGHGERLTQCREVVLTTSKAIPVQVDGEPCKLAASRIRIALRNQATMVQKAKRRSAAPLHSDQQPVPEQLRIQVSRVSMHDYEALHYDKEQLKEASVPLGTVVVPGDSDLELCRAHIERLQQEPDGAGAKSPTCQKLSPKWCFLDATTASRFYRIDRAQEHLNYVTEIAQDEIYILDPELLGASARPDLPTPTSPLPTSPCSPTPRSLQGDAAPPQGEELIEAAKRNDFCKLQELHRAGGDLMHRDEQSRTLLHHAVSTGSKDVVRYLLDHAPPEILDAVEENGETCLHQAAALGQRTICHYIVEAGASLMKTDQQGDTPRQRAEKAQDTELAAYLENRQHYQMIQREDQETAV
Method: DGK α and ζ kinases use ATP to phosphorylate the substrate 1,2-dilauroyl-sn-glycerol (DLG, incorporated in the liposomes). ATP is converted to ADP as a result of this enzymatic reaction. After the kinase reaction, an ATP-depletion reagent is added to terminate the kinase reaction and deplete any remaining ATP, leaving only ADP. Second, a detection reagent is added to simultaneously convert ADP to ATP and allow the newly synthesized ATP to be converted to light using a coupled luciferase/luciferin reaction.
Purification of both enzymes was performed as previously described by Takahashi et al., PeerJ, 2018 (Takahashi, D.; Sakane, F. Expression and purification of human diacylglycerol kinase alpha from baculovirus-infected insect cells for structural studies. PeerJ 2018, 6, No. e5449).
A concentrated liposome solution was prepared in assay buffer without DTT and BSA: 2 mM of DLG in 21 mM of total liposome (2 mM DLG/8 mM PS/11 mM PC). The reaction mixtures contain the assay buffer with a final DLG concentration of 125 uM ATP concentrations of 25 μM (for DGKA assay) or 50 μM (for DGKZ assay). The reactions were started by addition of DGK a and (kinases at 4 nM and 2 nM final concentrations, respectively. After 1 hour reaction, the amount of ADP formed was detected with the ADP-Glo kinase assay (Promega) according to the manufacturer instructions. Compounds were added in 11-points dose response, starting at […], 1:3 dilutions, with a final DMSO concentration of 2%. The multidrop combi was used as a liquid handler and luminescence was read with 0.5 s by the envision reader (PE).

[1] = Homo sapiens, T-cell, 24 h, IL2 after 24 hours, 20 μM reference compound A1 = 100%

| EC50 (primary human T-cells; Homo sapiens, T-cell, 24 h) [nM] | IC50 (DGKzeta) [nM] | EC50 (primary human T-cells) [nM] | SMILES | Emax (primary human T-cells; [1]) [%] | Emax IL2 (% activation) (primary human T-cells; IL2 after 24 hours, 20 μM reference compound A1 = 100%) [%] |
| --- | --- | --- | --- | --- | --- |
| 325 | 317 |  | CC(C)(c1nc(-c2cc3c(cc2F)S(=O)(=O)C[C@H](N)C(=O)N3Cc2ccc(OC(F)(F)F)cc2)no1)S(C)(=O)=O [Example 44, (3R)-3-amino-8-fluoro-7-[5-(1-methyl-1-methylsulfonyl-ethyl)-1,2,4-oxadiazol-3-yl]-1,1-dioxo-5-[[4-(trifluoromethoxy)phenyl]methyl]-2,3-dihydro-1λ6,5-benzothiazepin-4-one] | 192 |  |
| 1180 | 609 |  | CC(C)(c1nnc(-c2ccc3c(c2)N(Cc2ccc(Oc4cccc(Br)c4)cc2)C(=O)[C@@H](N)CS3(=O)=O)o1)S(C)(=O)=O [Example 60, (3R)-3-amino-5-[[4-(3-bromophenoxy)phenyl]methyl]-7-[5-(1-methyl-1-methylsulfonyl-ethyl)-1,3,4-oxadiazol-2-yl]-1,1-dioxo-2,3-dihydro-1λ6,5-benzothiazepin-4-one] | 106 |  |
| 1060 | 503 |  | CC(C)(c1nnc(-c2cc3c(cc2F)S(=O)(=O)C[C@H](N)C(=O)N3Cc2ccc(OCC(F)(F)F)cc2)o1)S(C)(=O)=O [Example 24, (3R)-3-amino-8-fluoro-7-[5-(1-methyl-1-methylsulfonyl-ethyl)-1,3,4-oxadiazol-2-yl]-1,1-dioxo-5-[[4-(2,2,2-trifluoroethoxy)phenyl]methyl]-2,3-dihydro-1λ6,5-benzothiazepin-4-one] | 24 |  |
| 2200 | 3500 |  | CS(=O)(=O)C1(c2nnc(-c3ccc4c(c3)N(Cc3ccc(Oc5ccccc5)cc3)C(=O)[C@@H](N)CS4(=O)=O)o2)CCC1 [Example 68, (3R)-3-amino-7-[5-(1-methylsulfonylcyclobutyl)-1,3,4-oxadiazol-2-yl]-1,1-dioxo-5-[(4-phenoxyphenyl)methyl]-2,3-dihydro-1λ6,5-benzothiazepin-4-one] | 41 |  |
| 131 | 192 |  | CC(C)(c1nc(-c2cc3c(cc2F)S(=O)(=O)C[C@H](N)C(=O)N3Cc2ccc(Cl)cc2)no1)S(C)(=O)=O [Example 43, (3R)-3-amino-5-[(4-chlorophenyl)methyl]-8-fluoro-7-[5-(1-methyl-1-methylsulfonyl-ethyl)-1,2,4-oxadiazol-3-yl]-1,1-dioxo-2,3-dihydro-1λ6,5-benzothiazepin-4-one] | 163 |  |
|  | 419 | 1170 | CC(C)(c1nc(-c2cc3c(cc2F)[S+]([O-])C[C@H](N)C(=O)N3Cc2ccc(Oc3ccccc3)cc2)no1)S(C)(=O)=O (stereo partly drawn) [Example 52, (3R)-3-amino-8-fluoro-7-[5-(1-methyl-1-methylsulfonyl-ethyl)-1,2,4-oxadiazol-3-yl]-1-oxo-5-[(4-phenoxyphenyl)methyl]-2,3-dihydro-1λ4,5-benzothiazepin-4-one] |  | 253 |
| 7330 | 1260 |  | CC(C)(c1nnc(-c2ccc3c(c2)N(Cc2ccc(OCCC(F)(F)F)cc2)C(=O)[C@@H](N)CS3(=O)=O)o1)S(C)(=O)=O [Example 23, (3R)-3-amino-7-[5-(1-methyl-1-methylsulfonyl-ethyl)-1,3,4-oxadiazol-2-yl]-1,1-dioxo-5-[[4-(3,3,3-trifluoropropoxy)phenyl]methyl]-2,3-dihydro-1λ6,5-benzothiazepin-4-one] | 62 |  |
| 8700 | 1520 |  | CCC(CC)Oc1ccc(CN2C(=O)[C@@H](N)CS(=O)(=O)c3ccc(-c4nnc(C(C)(C)S(C)(=O)=O)o4)cc32)cc1 [Example 19, (3R)-3-amino-5-[[4-(1-ethylpropoxy)phenyl]methyl]-7-[5-(1-methyl-1-methylsulfonyl-ethyl)-1,3,4-oxadiazol-2-yl]-1,1-dioxo-2,3-dihydro-1λ6,5-benzothiazepin-4-one] | 54 |  |
| 3530 | 8030 |  | CN(Cc1ccccc1)c1ccc(CN2C(=O)[C@@H](N)CS(=O)(=O)c3ccc(-c4nnc(C(C)(C)S(C)(=O)=O)o4)cc32)cc1 [Example 15, (3R)-3-amino-5-[[4-[benzyl(methyl)amino]phenyl]methyl]-7-[5-(1-methyl-1-methylsulfonyl-ethyl)-1,3,4-oxadiazol-2-yl]-1,1-dioxo-2,3-dihydro-1λ6,5-benzothiazepin-4-one] | 99 |  |
| 4180 | 6640 |  | CS(=O)(=O)Cn1nnnc1-c1cc2c(cc1F)S(=O)(=O)C[C@H](N)C(=O)N2Cc1ccc(Oc2ccccc2)cc1 [Example 55, (3R)-3-amino-8-fluoro-7-[1-(methylsulfonyl-methyl)tetrazol-5-yl]-1,1-dioxo-5-[(4-phenoxyphenyl)methyl]-2,3-dihydro-1λ6,5-benzothiazepin-4-one] | 85 |  |
| 2600 | 657 |  | CC(C)(c1nnc(-c2cc3c(cc2F)S(=O)(=O)C[C@H](N)C(=O)N3Cc2ccc(Oc3ccccc3)cc2)o1)S(C)(=O)=O [Example 27, (3R)-3-amino-8-fluoro-7-[5-(1-methyl-1-methylsulfonyl-ethyl)-1,3,4-oxadiazol-2-yl]-1,1-dioxo-5-[(4-phenoxyphenyl)methyl]-2,3-dihydro-1λ6,5-benzothiazepin-4-one] | 215 |  |
| 1370 | 468 |  | CC(C)(c1nnc(-c2ccc3c(c2)N(Cc2ccc(Oc4cccc(OC(F)F)c4)cc2)C(=O)[C@@H](N)CS3(=O)=O)o1)S(C)(=O)=O [Example 47, (3R)-3-amino-5-[[4-[3-(difluoromethoxy)phenoxy]phenyl]methyl]-7-[5-(1-methyl-1-methylsulfonyl-ethyl)-1,3,4-oxadiazol-2-yl]-1,1-dioxo-2,3-dihydro-1λ6,5-benzothiazepin-4-one] | 135 |  |
| 2210 | 1640 |  | COc1cccc(-c2ccc(CN3C(=O)[C@@H](N)CS(=O)(=O)c4ccc(-c5nnc(C(C)(C)S(C)(=O)=O)o5)cc43)cc2)c1 [Example 22, (3R)-3-amino-5-[[4-(3-methoxyphenyl)phenyl]methyl]-7-[5-(1-methyl-1-methylsulfonyl-ethyl)-1,3,4-oxadiazol-2-yl]-1,1-dioxo-2,3-dihydro-1λ6,5-benzothiazepin-4-one] | 63 |  |
